For data set [1], the target named is T1, Avidin from Gallus gallus egg white, Avi-pCBMA conjugate by PARIS (Gallus gallus, UniProt P02701).
T1 construct: purchased Lee Biosolutions (Maryland Heights, Mo.); host or cells: Gallus gallus egg white
Kind of data set: Binding affinity of HABA to Avi-pCBMA conjugate, PARIS. To be noted: 300 μM HABA. The protocol: (§1) α-Chymotrypsin (CT) from bovine pancreas (type II), lysozyme from chicken egg white, acetylcholinesterase from Electrophorus electricus (electric eel, type VI-S), uricase from porcine liver (type V), and agarase from Pseudomonas atlantica were purchased from Sigma Aldrich (St Louis, Mo.). Avidin from Gallus gallus egg white was purchased from Lee Biosolutions (Maryland Heights, Mo.). Protein surface active ATRP initiator (NHS-ATRP initiator) was prepared as described elsewhere (Murata et al., supra).
(§2) Absorption at 500 nm of 300 μM HABA solution in phosphate buffered saline without calcium or magnesium (986 μL, Lonza) was measured using UV-VIS spectrometer. 16 μL, of the conjugates solution (1.25 μM of avidin in deionized water) was added to the HABA solution and incubated at room temperature for 1 minute, and then absorption at 500 nm was measured. Change in absorbance at 500 nm was used to determine bound HABA to the conjugate.

Data set [2] has as its target Avidin from Gallus gallus egg white, Avi-pCBMA conjugate by solution synthesis (Gallus gallus, UniProt P02701). The data set can be described thus: Binding affinity of HABA to Avi-pCBMA conjugate, solution. Conditions: 300 μM HABA, 1 minute, room temperature, [Avi]0 = 2 μM, ε500 = 34000 M^−1. The protocol:
as §1, §2

The target in data set [3] is T2, acetylcholinesterase (AChE) from Electrophorus electricus (electric eel, type VI-S), AChE-pCBMA conjugate by PARIS (Electrophorus electricus, UniProt O42275).
T2 construct: purchased Sigma Aldrich (St Louis, Mo.); host or cells: Electrophorus electricus (electric eel)
T2 sequence (O42275 24-633): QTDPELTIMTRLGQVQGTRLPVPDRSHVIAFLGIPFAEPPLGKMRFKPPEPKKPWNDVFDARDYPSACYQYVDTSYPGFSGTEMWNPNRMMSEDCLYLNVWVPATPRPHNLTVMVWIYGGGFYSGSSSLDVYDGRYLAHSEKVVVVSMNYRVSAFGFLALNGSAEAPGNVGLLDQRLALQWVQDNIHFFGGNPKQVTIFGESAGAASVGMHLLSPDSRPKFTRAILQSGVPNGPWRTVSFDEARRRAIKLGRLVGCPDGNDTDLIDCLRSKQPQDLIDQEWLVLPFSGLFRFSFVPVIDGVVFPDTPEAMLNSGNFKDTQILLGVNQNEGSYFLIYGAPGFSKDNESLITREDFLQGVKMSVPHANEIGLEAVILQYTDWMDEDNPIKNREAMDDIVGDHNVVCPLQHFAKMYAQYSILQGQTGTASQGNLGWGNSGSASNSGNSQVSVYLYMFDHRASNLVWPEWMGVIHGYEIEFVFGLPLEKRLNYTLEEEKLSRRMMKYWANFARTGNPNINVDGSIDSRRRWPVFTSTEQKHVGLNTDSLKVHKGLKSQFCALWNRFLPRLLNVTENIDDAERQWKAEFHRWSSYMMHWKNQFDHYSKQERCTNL
The data set can be described thus: Michaelis-Menten kinetics of AChE-catalyzed hydrolysis of acetylthiocholine iodide, PARIS conjugate. Type of data set: biochemical. Conditions: pH 7.4, 37° C. The protocol: as §1
Acetylthiocholine iodide (0-100 μL of 10 mM in 100 mM sodium phosphate buffer (pH 7.4)) and 10 μL of DTNB solution (50 mM in DMSO) were mixed with 100 mM sodium phosphate buffer (980-880 μL, pH 7.4). Conjugate solution (10 μL, 5.5 μM of AChE) was added to the substrate solution. The initial substrate hydrolysis rate was monitored by recording the increase in absorbance at 412 nm using a UV-VIS absorbance spectrometer with a temperature-controlled cell holder at 37° C. Michaelis-Menten parameters were determined by nonlinear curve fitting of initial rate versus substrate concentration plots using Enzfitter software.

Data set [4] concerns C[C@H](NC(=O)CCC(=O)O)C(=O)N[C@@H](C)C(=O)N1CCC[C@H]1C(=O)N[C@@H](Cc1ccccc1)C(=O)Nc1ccc([N+](=O)[O-])cc1. The data set can be described thus: purified protein, by the assay type. Conditions: other: native CT, pH 8, 25° C.
Experimental: Suc-AAPF-pNA (0-125 μL of 9.60 mM in DMSO) was mixed with sodium phosphate buffer (865-950 μL of 100 mM buffer, pH 8). Native CT or conjugate solutions (10 μL, 3.9 μM of CT) was added to the substrate solution. The initial substrate hydrolysis rate was monitored by recording the increase in absorbance at 412 nm using a UV-VIS absorbance spectrometer with a temperature-controlled cell holder at 25° C. Michaelis-Menten parameters were determined by nonlinear curve fitting of initial rate versus substrate concentration plots using Enzfitter software.

These results are taken from US20200369716A1, “SOLID-PHASE SYNTHESIS OF PROTEIN-POLYMER CONJUGATES ON IMMOBILIZATION SUPPORTS” (Carnegie Mellon University, priority 2017, published 2020).

T1 sequence (P02701 25-152): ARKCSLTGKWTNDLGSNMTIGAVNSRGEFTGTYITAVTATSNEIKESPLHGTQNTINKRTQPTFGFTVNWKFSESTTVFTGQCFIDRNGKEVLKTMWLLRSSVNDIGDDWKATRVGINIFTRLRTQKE
Sequence of Avidin from Gallus gallus egg white, Avi-pCBMA conjugate by solution synthesis (P02701 25-152): as above

As for `O=C(O)c1ccccc1/N=N/c1ccc(O)cc1` [HABA, 4′-hydroxyazobenzene-2-carboxylic acid], the “Ratio of binding affinity of HABA (PARIS:solution)” value in data set [1] (Avi-pCBMA, PARIS:solution) turned out to be 1.01 ± 0.14. Besides, the “Bound HABA” value came to 0.93 ± 0.13 µM in data set [1] (PARIS Avi-pCBMA, 1 minute, room temperature, [Avi]0 = 2 μM, ε500 = 34000 M^−1) and 0.92 ± 0.04 µM in data set [2].

In the case of `CC(=O)SCC[N+](C)(C)C.[I-]` [acetylthiocholine iodide, Acetylthiocholine iodide], the “Ratio of enzymatic efficiency (PARIS:solution)” value in data set [3] amounted to 1.09 ± 0.08.

Regarding “α-Chymotrypsin (CT) from bovine pancreas (type II), native (Bos taurus)”, in data set [4], the Km was determined as 80.3 ± 13.1 µM, the kcat is 34.6 ± 1.4 s⁻¹ and the kcat/Km is 0.431 ± 0.072 s⁻¹ µM⁻¹.
